In patent US20170121687A1, “METHODS OF CELLULAR REPROGRAMMING” (Agency for Science, Technology and Research, priority 2014, published 2017):

B1: KGF: keratinocyte growth factor (protein, UniProt P21781 32-194, looked up)
Fibroblast growth factor 7: CNDMTPEQMATNVNCSSPERHTRSYDYMEGGDIRVRRLFCRTQWYLRIDKRGKVKGTQEMKNNYNIMEIRTVAVGIVAIKGVESEFYLAMNKEGKLYAKKECNEDCNFKELILENHYNTYASAKWTHNGGEMFVALNQKGIPVRGKKTKKEQKTAHFLPMAIT

System: IMR90
Assay: Integrin ligation step with other extracellular matrices and growth factors after antibody induction
Assay type: cell-based, human
Conditions: FIG. 12-15
Method: Cells were detached using conventional cell culture techniques and 60000 suspended cells in 100 μL media were incubated with 2 μg of each of the following antibodies—Anti-Integrin alpha V [272-17E6] (Abcam, USA), Anti-Integrin alpha 5 [P1D6]—Azide free (Abcam, USA), Anti-Integrin beta 3 antibody [25E11], Anti-Integrin αV/β5 (P1F6) L (Santa Cruz Biotechnology, USA), Anti-Integrin αVβ6, clone 10D5 (Merck, USA)—for 30 minutes in a 37° C. incubator. Control antibody used was normal mouse IgG1 antibody (Santa Cruz Biotechnology, USA). The volume of the cell suspension was brought up to 250 μL for subsequent seeding in a 48-well tissue culture plate. Two days after antibody treatment, extracellular matrix was added into the media. Reprogramming of U251 cells followed a modified procedure, where a 3-antibody combination comprising Anti-Integrins αv, αvβ5 and αvβ6 was used. Two days after antibody treatment, the cells were transferred to ECM that had been pre-coated onto the culture wells. Extracellular matrices used are basement membrane matrix, Geltrex (Life Technologies, USA), laminin 332 and laminin 511 (Biolamina, Sweden). One day after addition of extracellular matrix, the media was changed to one of the following growth factors-supplemented media—1) SKP media made up of DMEM/F12 (Life Technologies, USA) supplemented with 1× B27 supplement (Life Technologies, USA), 40 ng/mL bFGF, 20 ng/mL EGF (Life Technologies, USA); 2) mTESR2 (Stemcell Technologies, USA).
Cells were lysed for RNA using TRIzol® Reagent (Invitrogen, USA) following manufacturer's instructions. Purified RNA was reverse transcribed into cDNA using iScript™ cDNA synthesis kit (Bio-Rad, USA). The reaction was carried out in a 20 μL volume containing 4 μL 5× iScript reaction mix, 1 μL iScript reverse transcriptase, RNA template (≦1000 ng total RNA) and nuclease free water (variable). The complete reaction mix was incubated for at 5 minutes at 25° C., 30 minutes at 42° C., 5 minutes at 85° C. followed by holding at 4° C. (optional).
Reaction was performed on iQ5 multi-colour real-time PCR detection system (Bio-Rad, USA) using the iTaq™ Universal SYBR® Green supermix (Bio-Rad, USA). The 20 μL volume reaction component includes 10 μL iTaq™ Universal SYBR® Green supermix, 1 μL of primer mix (5 μM forward primer, 5 μM reverse primer), 1 to 100 ng template and nuclease free water (variable).
The reaction conditions were as follows: 30 sec at 95° C., followed by 40 cycles of 15 sec at 95° C. and 30 sec at 60° C. […] Relative quantization of target mRNA expression, normalized to an endogenous control and relative to a calibrator, was calculated using the mathematical expression for fold change 2-ΔΔCt (fold change).

Molecule | expression of MET and stemness markers
HGF: hepatocyte growth factor | reduced expression of both MET and stemness markers
Laminin 511: extracellular matrix (Biolamina, Sweden) used during the integrin ligation step | positively influenced
Laminin 521: extracellular matrix used during the integrin ligation step | positively influenced
B1 | did not appear to significantly affect
